Data published in the supplement of paper PMC11061612.

Experiments:
Alisertib = compound: COc1cc(Nc2ncc3c(n2)-c2ccc(Cl)cc2C(c2c(F)cccc2OC)=NC3)ccc1C(=O)O [Alisertib]; conditions: max 10 µM
In short: (§1)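 Cancer cell lines were plated in 1536-well plates in 7.5 μl of DMEM/F12 or RPMI with 10% FBS and kept 24 hours at 37°C and 5% CO2 before 72 hours of dosing, with final DMSO typically 0.2%. CellTiter-Glo 2.0 luminescence measured viability, scaled between blank-well and DMSO-well means. Dose responses were fitted to a two-parameter logistic curve with a non-linear mixed effects model. This fit gives the single-agent IC50.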

SRA737 = compound: N#Cc1cnc(Nc2cc(NC[C@H]3CNCCO3)c(C(F)(F)F)cn2)cn1 [SRA737]; conditions: max 10 µM
In short: as §1

AZD0156 = compound: CN(C)CCCOc1ccc(-c2ccc3ncc4c(c3c2)n(C2CCOCC2)c(=O)n4C)cn1 [AZD0156]; conditions: max 3 µM
In short: as §1

Lapatinib = compound: CS(=O)(=O)CCNCc1ccc(-c2ccc3ncnc(Nc4ccc(OCc5cccc(F)c5)c(Cl)c4)c3c2)o1 [Lapatinib]; conditions: max 10 µM
In short: as §1

Gemcitabine = compound: Nc1ccn([C@@H]2O[C@H](CO)[C@@H](O)C2(F)F)c(=O)n1 [Gemcitabine]; conditions: max 0.3 µM
In short: as §1

AZD2811 = compound: CCN(CCO)CCCOc1ccc2c(Nc3cc(CC(=O)Nc4cccc(F)c4)[nH]n3)ncnc2c1 [AZD2811]; conditions: max 1 µM
In short: as §1

Doxorubicin = compound: COc1cccc2c1C(=O)c1c(O)c3c(c(O)c1C2=O)C[C@@](O)(C(=O)CO)C[C@@H]3O[C@H]1C[C@H](N)[C@H](O)[C@H](C)O1 [Doxorubicin]; conditions: max 1 µM
In short: as §1

Taselisib = compound: Cc1nc(-c2cn3c(n2)-c2ccc(-c4cnn(C(C)(C)C(N)=O)c4)cc2OCC3)n(C(C)C)n1 [Taselisib]; conditions: max 10 µM
In short: as §1

AZD8186 = compound: C[C@@H](Nc1cc(F)cc(F)c1)c1cc(C(=O)N(C)C)cc2c(=O)cc(N3CCOCC3)oc12 [AZD8186]; conditions: max 10 µM
In short: as §1

Etoposide = compound: COc1cc([C@@H]2c3cc4c(cc3[C@@H](O[C@@H]3O[C@@H]5CO[C@@H](C)O[C@H]5[C@H](O)[C@H]3O)[C@H]3COC(=O)[C@H]23)OCO4)cc(OC)c1O [Etoposide]; conditions: max 10 µM
In short: as §1

Prexasertib = compound: COc1cccc(OCCCN)c1-c1cc(Nc2cnc(C#N)cn2)n[nH]1 [Prexasertib]; conditions: max 1 µM
In short: as §1

Savolitinib = compound: C[C@@H](c1ccc2nccn2c1)n1nnc2ncc(-c3cnn(C)c3)nc21 [Savolitinib]; conditions: max 1 µM
In short: as §1

Crizotinib = compound: C[C@@H](Oc1cc(-c2cnn(C3CCNCC3)c2)cnc1N)c1c(Cl)ccc(F)c1Cl [Crizotinib]; conditions: max 10 µM
In short: as §1

Paclitaxel = compound: CC(=O)O[C@H]1C(=O)[C@@]2(C)[C@H]([C@H](OC(=O)c3ccccc3)[C@]3(O)C[C@H](OC(=O)[C@H](O)[C@@H](NC(=O)c4ccccc4)c4ccccc4)C(C)=C1C3(C)C)[C@]1(OC(C)=O)CO[C@@H]1C[C@@H]2O [Paclitaxel]; conditions: max 3 µM
In short: as §1

Carboplatin = compound: C1CC(C1)(C(=O)[O-])C(=O)[O-].N.N.[Pt+2] [Carboplatin]; conditions: max 10 µM
In short: as §1

[1] = compound: O=C(Nc1ccc2[nH]nc(-c3ccncc3)c2c1)[C@@H]1CCN(CC(=O)N2CCN(c3ccc(-c4ncccn4)cc3)CC2)C1; conditions: max 5 µM
In short: as §1

Trametinib = compound: CC(=O)Nc1cccc(-n2c(=O)n(C3CC3)c(=O)c3c(Nc4ccc(I)cc4F)n(C)c(=O)c(C)c32)c1 [Trametinib]; conditions: max 1 µM
In short: as §1

5-Fluorouracil = compound: O=c1[nH]cc(F)c(=O)[nH]1 [5-Fluorouracil]; conditions: max 20 µM
In short: as §1

SN-38 = compound: CCc1c2c(nc3ccc(O)cc13)-c1cc3c(c(=O)n1C2)COC(=O)[C@]3(O)CC [SN-38]; conditions: max 0.3 µM
In short: as §1

Venetoclax = compound: CC1(C)CCC(CN2CCN(c3ccc(C(=O)NS(=O)(=O)c4ccc(NCC5CCOCC5)c([N+](=O)[O-])c4)c(Oc4cnc5[nH]ccc5c4)c3)CC2)=C(c2ccc(Cl)cc2)C1 [Venetoclax]; conditions: max 1 µM
In short: as §1

AZD4320 = compound: CN(CC[C@H](CSC1=CC=CC=C1)NC2=C(C=C(C=C2)S(=O)(=O)NC(=O)C3=CC=C(C=C3)N4CCC(CC4)[C@H](C5=CC=CC=C5C6=CC=C(C=C6)Cl)O)S(=O)(=O)C(F)(F)F)CCO [AZD4320]; conditions: max 1 µM
In short: as §1

Selumetinib = compound: Cn1cnc2c(F)c(Nc3ccc(Br)cc3Cl)c(C(=O)NOCCO)cc21 [Selumetinib]; conditions: max 10 µM
In short: as §1

AZD1390 = compound: CC(C)n1c(=O)n(C)c2cnc3cc(F)c(-c4ccc(OCCCN5CCCCC5)nc4)cc3c21 [AZD1390]; conditions: max 0.3 µM
In short: as §1

Olaparib = compound: O=C(c1cc(Cc2n[nH]c(=O)c3ccccc23)ccc1F)N1CCN(C(=O)C2CC2)CC1 [Olaparib]; conditions: max 10 µM
In short: as §1

MK-2206 = compound: NC1(c2ccc(-c3nc4ccn5c(=O)[nH]nc5c4cc3-c3ccccc3)cc2)CCC1 [MK-2206]; conditions: max 10 µM
In short: as §1

AZD7648 = compound: Cc1cc2ncnn2cc1Nc1ncc2c(n1)n(C1CCOCC1)c(=O)n2C [AZD7648]; conditions: max 10 µM
In short: as §1

AZD5363 = compound: C1CN(CCC1(C(=O)N[C@@H](CCO)C2=CC=C(C=C2)Cl)N)C3=NC=NC4=C3C=CN4 [AZD5363]; conditions: max 10 µM
In short: as §1

Dasatinib = compound: CC1=C(C(=CC=C1)Cl)NC(=O)C2=CN=C(S2)NC3=CC(=NC(=N3)C)N4CCN(CC4)CCO [Dasatinib]; conditions: max 2 µM
In short: as §1

AZD5153 = compound: COc1nnc2ccc(N3CCC(c4ccc(OCCN5CCN(C)C(=O)[C@H]5C)cc4)CC3)nn12 [AZD5153]; conditions: max 1 µM
In short: as §1

Gefitinib = compound: COc1cc2ncnc(Nc3ccc(F)c(Cl)c3)c2cc1OCCCN1CCOCC1 [Gefitinib]; conditions: max 10 µM
In short: as §1

SG3199 = compound: CC1=CN2[C@@H](C1)C=NC3=CC(=C(C=C3C2=O)OC)OCCCCCOC4=C(C=C5C(=C4)N=C[C@@H]6CC(=CN6C5=O)C)OC [SG3199]; conditions: max 0.001 µM
In short: as §1

AZD1775 = compound: C=CCn1c(=O)c2cnc(Nc3ccc(N4CCN(C)CC4)cc3)nc2n1-c1cccc(C(C)(C)O)n1 [AZD1775]; conditions: max 3 µM
In short: as §1

AZD5991 = compound: Cc1c2c(nn1C)CSCc1cc(n(C)n1)CSc1cc(c3ccccc3c1)OCCCc1c(C(=O)O)n(C)c3c-2c(Cl)ccc13 [AZD5991]; conditions: max 1 µM
In short: as §1

AZD6738 = compound: C[C@@H]1COCCN1C2=NC(=NC(=C2)C3(CC3)[S@](=N)(=O)C)C4=C5C=CNC5=NC=C4 [AZD6738]; conditions: max 10 µM
In short: as §1

Palbociclib = compound: CC(=O)c1c(C)c2cnc(Nc3ccc(N4CCNCC4)cn3)nc2n(C2CCCC2)c1=O [Palbociclib]; conditions: max 10 µM
In short: as §1

Cell Line | IC50, cell viability 72 h (Alisertib) [nM] | IC50, cell viability 72 h (SRA737) [nM] | IC50, cell viability 72 h (AZD0156) [nM] | IC50, cell viability 72 h (Lapatinib) [nM] | IC50, cell viability 72 h (Gemcitabine) [nM] | IC50, cell viability 72 h (AZD2811) [nM] | IC50, cell viability 72 h (Doxorubicin) [nM] | IC50, cell viability 72 h (Taselisib) [nM] | IC50, cell viability 72 h (AZD8186) [nM] | IC50, cell viability 72 h (Etoposide) [nM] | IC50, cell viability 72 h (Prexasertib) [nM] | IC50, cell viability 72 h (Savolitinib) [nM] | IC50, cell viability 72 h (Crizotinib) [nM] | IC50, cell viability 72 h (Paclitaxel) [nM] | IC50, cell viability 72 h (Carboplatin) [nM] | IC50, cell viability 72 h [1] [nM] | IC50, cell viability 72 h (Trametinib) [nM] | IC50, cell viability 72 h (5-Fluorouracil) [nM] | IC50, cell viability 72 h (SN-38) [nM] | IC50, cell viability 72 h (Venetoclax) [nM] | IC50, cell viability 72 h (AZD4320) [nM] | IC50, cell viability 72 h (Selumetinib) [nM] | IC50, cell viability 72 h (AZD1390) [nM] | IC50, cell viability 72 h (Olaparib) [nM] | IC50, cell viability 72 h (MK-2206) [nM] | IC50, cell viability 72 h (AZD7648) [nM] | IC50, cell viability 72 h (AZD5363) [nM] | IC50, cell viability 72 h (Dasatinib) [nM] | IC50, cell viability 72 h (AZD5153) [nM] | IC50, cell viability 72 h (Gefitinib) [nM] | IC50, cell viability 72 h (SG3199) [nM] | IC50, cell viability 72 h (AZD1775) [nM] | IC50, cell viability 72 h (AZD5991) [nM] | IC50, cell viability 72 h (AZD6738) [nM] | IC50, cell viability 72 h (Palbociclib) [nM]
SR (Other Blood Carcinomas) | 50.3 | 1400 | > 3000 | > 10000 | 45.3 | 43.5 | 26.1 | > 10000 | > 10000 | 126 | 5.88 | > 1000 | 251 | 5.75 | > 10000 | > 5000 | > 1000 | 4320 | 3.3 | 722 | 677 | > 10000 | > 300 | > 10000 | > 10000 | > 10000 | > 10000 | > 2000 | 86.4 | > 10000 | > 1 | 187 | 352 | 1750 | 3000
SW837 (Colorectal Carcinoma) | > 10000 | > 10000 | > 3000 | > 10000 | > 300 | > 1000 | > 1000 | > 10000 | > 10000 | > 10000 | 186 | > 1000 | > 10000 | 582 | > 10000 | > 5000 | 300 | > 20000 | > 300 | > 1000 | > 1000 | 9890 | > 300 | > 10000 | > 10000 | > 10000 | > 10000 | > 2000 | 717 | > 10000 | > 1 | 2240 | > 1000 | > 10000 | > 10000
